The target in experiment [1] is T1, D(1A) dopamine receptor (Homo sapiens, UniProt P21728). Nature of the experiment: Competitive Binding Assays.
The target in a further experiment is D(2) dopamine receptor (Homo sapiens, UniProt P14416). Nature of the experiment: Competitive Binding Assays.
Another experiment addresses D(3) dopamine receptor (Homo sapiens, UniProt P35462). The experiment in a line: Competitive Binding Assays.
Experiment [2] addresses T1, D(1A) dopamine receptor. The experiment in a line: D1R Functional Assay. As to conditions: pH 7.5.

This is an account of results in BindingDB's records for doi:10.1111/cbdd.12796 (Fudan University, 2016).

Where “and” joins values, the source holds several entries; their conditions need not be identical. Equal entries are not always repeated.

The Ki is the dissociation constant of the complex between target and ligand, obtained from inhibition or displacement. The low end stands for higher affinity, the high end for lower affinity. As usually defined, the IC50 is the concentration at which inhibition is half-maximal. A lower IC50 goes with greater potency.

T1 sequence (P21728 whole entry): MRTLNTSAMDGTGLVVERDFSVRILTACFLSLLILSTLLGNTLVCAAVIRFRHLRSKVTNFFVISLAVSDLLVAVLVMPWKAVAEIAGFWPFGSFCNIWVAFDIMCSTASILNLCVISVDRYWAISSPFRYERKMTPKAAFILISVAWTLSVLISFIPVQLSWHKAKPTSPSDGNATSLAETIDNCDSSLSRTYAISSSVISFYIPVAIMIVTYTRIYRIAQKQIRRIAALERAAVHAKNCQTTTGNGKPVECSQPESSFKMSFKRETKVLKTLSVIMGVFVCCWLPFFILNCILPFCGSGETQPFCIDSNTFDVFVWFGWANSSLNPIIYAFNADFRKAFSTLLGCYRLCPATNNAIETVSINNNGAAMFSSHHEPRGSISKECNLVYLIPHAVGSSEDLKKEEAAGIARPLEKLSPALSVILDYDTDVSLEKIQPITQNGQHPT
Chain of D(2) dopamine receptor (P14416 whole entry): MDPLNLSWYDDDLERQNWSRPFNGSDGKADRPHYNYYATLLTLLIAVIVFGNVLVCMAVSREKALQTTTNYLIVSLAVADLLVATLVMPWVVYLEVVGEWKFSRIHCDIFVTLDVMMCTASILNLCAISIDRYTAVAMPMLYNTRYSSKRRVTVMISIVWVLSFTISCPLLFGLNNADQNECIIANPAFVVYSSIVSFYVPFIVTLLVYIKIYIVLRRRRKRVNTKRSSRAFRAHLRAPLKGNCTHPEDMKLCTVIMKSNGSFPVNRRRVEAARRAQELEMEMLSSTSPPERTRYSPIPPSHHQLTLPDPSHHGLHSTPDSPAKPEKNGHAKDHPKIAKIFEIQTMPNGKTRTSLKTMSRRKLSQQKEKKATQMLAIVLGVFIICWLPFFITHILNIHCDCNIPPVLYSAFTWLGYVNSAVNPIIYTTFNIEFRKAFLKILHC
Chain of D(3) dopamine receptor (P35462 as listed by the source): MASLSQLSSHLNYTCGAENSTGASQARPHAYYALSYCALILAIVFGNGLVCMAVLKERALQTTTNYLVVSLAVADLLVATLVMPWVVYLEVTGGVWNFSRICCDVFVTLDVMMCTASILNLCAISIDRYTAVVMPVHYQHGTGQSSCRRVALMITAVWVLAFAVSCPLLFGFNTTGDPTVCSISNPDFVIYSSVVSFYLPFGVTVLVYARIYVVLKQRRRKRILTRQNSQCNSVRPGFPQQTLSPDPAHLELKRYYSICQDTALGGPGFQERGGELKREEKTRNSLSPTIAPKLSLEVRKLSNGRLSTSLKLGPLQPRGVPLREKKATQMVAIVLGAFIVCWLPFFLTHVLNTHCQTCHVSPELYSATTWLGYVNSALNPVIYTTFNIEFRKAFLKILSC

For `COc1cc2c(cc1OC)CC1c3cc(OC)c(OC)cc3CCN1CC2` (stereo not drawn) [2,3,11,12-tetramethoxy-5,6,8,9,14,14a-hexahydrobenzo[4,5]azepino[2,1-a]isoquinoline (15a)], the values for the inhibitory constant (Ki) on D(1A) dopamine receptor [1], at D(2) dopamine receptor and on D(3) dopamine receptor were 33.9 nM, 26.5 nM and 13.3 nM, respectively.

Turning to `COc1ccc2c(c1OC)CCN1CCc3cc4c(cc3C1C2)OCO4` (stereo not drawn) [Hexahydrobenzo[4,5]azepino[2,1-a]isoquinoline, 16], the Ki at D(1A) dopamine receptor [1] amounted to 60.3 nM; at D(2) dopamine receptor, 4.26 nM; on D(3) dopamine receptor, 27.3 nM.

Consider `COc1ccc2c(c1OC)CCN1CCc3cc(O)c(O)cc3C1C2` (stereo not drawn) [Hexahydrobenzo[4,5]azepino[2,1-a]isoquinoline, 17], for which the inhibition constant Ki on D(1A) dopamine receptor [1] was found to be 220 nM; at D(2) dopamine receptor, 39.2 nM; on D(3) dopamine receptor it was 61.2 nM.

Turning to `COc1cc2c(cc1O)C1Cc3cc(OC)c(OC)cc3CCN1CC2` (stereo not drawn) [3,11,12-trimethoxy-5,6,8,9,14,14a-hexahydrobenzo[4,5]azepino[2,1-a]isoquinolin-2-ol (15b)], the Ki at D(1A) dopamine receptor [1] came out at 69.1 nM; on D(2) dopamine receptor, 6.96 nM; on D(3) dopamine receptor it was 39.2 nM.

As for `COc1cc2c(cc1O)C1Cc3ccc(OC)c(OC)c3CCN1CC2` (stereo not drawn) [3,10,11-trimethoxy-5,6,8,9,14,14a-hexahydrobenzo[4,5]azepino[2,1-a]isoquinolin-2-ol (15d)], the Ki on D(1A) dopamine receptor [1] came to 30.3 nM; at D(2) dopamine receptor it was 84 nM; at D(3) dopamine receptor, 284 nM. This compound returned a 50% inhibitory concentration (IC50) at D(1A) dopamine receptor [2] of 33500 nM.

Consider `COc1cc2c(cc1O)C1Cc3ccc(OC)c(O)c3CCN1CC2` (stereo not drawn) [3,11-dimethoxy-5,6,8,9,14,14a-hexahydrobenzo[4,5]azepino[2,1-a]isoquinoline-2,10-diol ((+)-15e)], for which the inhibitory constant (Ki) on D(2) dopamine receptor was 36.6 nM and 34.4 nM and 58.3 nM. On D(1A) dopamine receptor [2], this compound displayed a concentration for half-maximal inhibition (IC50) of 140 nM.

For `COc1cc2c(cc1OC)C1Cc3ccc(OC)c(OC)c3CCN1CC2` (stereo not drawn) [2,3,10,11-tetramethoxy-5,6,8,9,14,14a-hexahydrobenzo[4,5]azepino[2,1-a]isoquinoline (15c)], the Ki on D(1A) dopamine receptor [1] is 57.3 nM; on D(2) dopamine receptor, 29.8 nM; at D(3) dopamine receptor it was 22 nM.

Regarding `COc1cc2c(cc1OC(C)=O)C1Cc3ccc(OC)c(OC)c3CCN1CC2` (stereo not drawn) [3,10,11-trimethoxy-5,6,8,9,14,14a-hexahydrobenzo[4,5]azepino[2,1-a]isoquinolin-2-ylacetate (19)], the Ki at D(1A) dopamine receptor [1] came to 474 nM; at D(2) dopamine receptor it was 52 nM; on D(3) dopamine receptor it was 73.7 nM.

On to `Oc1cc2c(cc1O)C1Cc3ccc(O)c(O)c3CCN1CC2` (stereo not drawn) [5,6,8,9,14,14a-hexahydrobenzo[4,5]azepino[2,1-a]isoquinoline-2,3,10,11-tetraol (18)], for which the Ki on D(1A) dopamine receptor [1] came out at 33.7 nM; on D(2) dopamine receptor it was 72.2 nM; on D(3) dopamine receptor, 471 nM. The compound also yielded a 50% inhibitory concentration (IC50) against D(1A) dopamine receptor [2] of 115000 nM.
